Reference: patent US20260083851A1 (AVILAR THERAPEUTICS, INC., priority 2022, published 2026)
pEC50, pKd: −log10 of the molar value. Like-named read-outs stand apart in the source and are kept apart here.

Legend:
HepG2 cells = assay: Cellular uptake assay (high-content imaging); assay type: cell-based, human; conditions: 100 nM AF488-labeled antibody, 6 hours at 37° C., the 25th table, read-out: Uptake EC50; for pEC50: class symbols
Text: The cellular uptake assay is designed to measure compound-mediated cellular uptake of fluorescently labeled antibody following ternary complex formation with the ASGPR receptor and endocytosis of the entire complex into cells. The optimal concentration of compound will result in the maximum number of cells with intracellular antibody and is represented as the peak ratio of antibody-positive cells over the total number of cells. As with the ternary complex formation assay, too much or too little compound will result in suboptimal complex formation and fewer cells will have measurable intracellular fluorescence.
Human IgG (Sigma-Aldrich, 14506) was covalently labeled with Alexa Fluor 488 using the Alexa Fluor™ 488 Protein Labeling Kit (Thermo Fisher, A10235) following the manufacturer's instructions. HepG2 cells were plated in DMEM supplemented with 10% FBS at 5,000 cells per well in a 96-well microtiter plate and incubated for approximately 18 hours at 37° C./5% CO2. For studies using human IgG, 100 nM AF488-labeled human IgG antibodies and serial dilutions of IgG-based degrader (0.1% DMSO final concentration) were added to the cells and the mixture was incubated at 37° C. for 6 hours. For studies using DNP, 100 nM AF488-labeled DNP antibodies and serial dilutions of DNP-based degrader (0.1% DMSO final concentration) were added to the cells and the mixture was incubated at 37° C. for 6 hours. HepG2 cells were fixed in 100% methanol at −20° C. for 20 min, washed 3× with PBS, then stained with DAPI (Thermo, Cat #H3570). HepG2 cells were imaged for DAPI and Alexa Fluor 488 using the Operetta CLS, high-content analysis system (PerkinElmer). Data is presented as the ratio of the number of cells positive for hIgG or DNP (AF-488 fluorescence) over the total cell number (measured by DAPI).

IgG = IgG SPR binding; conditions: second table, read-out: IgG KD
ASGPR = target: T1, ASGPR (Homo sapiens, UniProt P07306); assay: ASGPR SPR binding; conditions: second table, read-out: ASGPR KD
T1 construct: biotin (biotinylated)
T1 sequence (P07306 1-291): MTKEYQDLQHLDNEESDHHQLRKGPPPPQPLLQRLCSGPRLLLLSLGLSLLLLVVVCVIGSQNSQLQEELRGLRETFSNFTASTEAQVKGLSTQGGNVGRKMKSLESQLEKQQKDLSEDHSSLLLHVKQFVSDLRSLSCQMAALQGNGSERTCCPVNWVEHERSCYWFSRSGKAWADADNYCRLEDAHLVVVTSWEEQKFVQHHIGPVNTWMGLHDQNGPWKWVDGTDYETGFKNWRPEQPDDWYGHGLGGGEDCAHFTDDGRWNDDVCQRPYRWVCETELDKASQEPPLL

[1] = target: T2, ASGPR receptor on HepG2 cells (ternary complex with AF488-labeled antibody) (Homo sapiens, UniProt P07306); assay: Ternary complex formation assay (flow cytometry, cell-associated AF488 fluorescence); assay type: cell-based; conditions: 100 nM AF488-labeled antibody, 1 hour at 4° C., the 25th table, read-out: TCF EC50; for pEC50: class symbols
T2 construct: host or cells: HepG2
T2 sequence (P07306 1-291): T1 sequence (P07306 1-291)
T2 sequence (P07307 1-311 partner): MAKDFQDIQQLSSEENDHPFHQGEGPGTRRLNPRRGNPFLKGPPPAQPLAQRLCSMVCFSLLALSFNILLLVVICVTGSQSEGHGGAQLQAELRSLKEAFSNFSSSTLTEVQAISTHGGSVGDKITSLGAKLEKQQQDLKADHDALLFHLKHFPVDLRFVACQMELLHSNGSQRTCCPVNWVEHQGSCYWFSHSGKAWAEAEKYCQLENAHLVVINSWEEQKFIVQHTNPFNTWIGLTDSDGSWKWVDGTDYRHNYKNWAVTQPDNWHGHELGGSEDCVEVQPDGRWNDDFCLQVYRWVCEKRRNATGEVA
Method: Human IgG (Sigma-Aldrich, 14506) was covalently labeled with Alexa Fluor 488 using the Alexa Fluor™ 488 Protein Labeling Kit (Thermo Fisher, A10235) following the manufacturer's instructions. HepG2 cells (ATCC, HB-8065) were cultured to about 70% confluence and harvested by trypsinization. Single cell suspensions of HepG2 cells were plated in 96 well plates at 1×10^5 cells/well in cell culture media (DMEM supplemented with 10% FBS) and placed at 4° C. For studies using human IgG, cells were incubated with 100 nM AF488-labeled anti-human IgG and serial dilutions of IgG-based degrader for 1 hour at 4° C. For studies using DNP, cells were incubated with 100 nM AF488-labeled polyclonal rabbit anti-dinitrophenyl (DNP) antibodies (ThermoFisher) and serial dilutions of DNP-based degrader for 1 hour at 4° C. After washing once with ice-cold PBS containing 0.1% BSA and 0.1% sodium azide, cells were resuspended in 150 uL PBS+0.1% BSA and cell-associated AF488 fluorescence was measured by flow cytometry using the iQue® Screener PLUS Flow Cytometer (IntelliCyt). […]

SMILES	pEC50 (HepG2 cells; Homo sapiens)	pKd (IgG)	pKd (ASGPR)	pEC50 [1]	pEC50 (HepG2 cells)	other results
CC(C)C[C@@H]1NC(=O)[C@H](Cc2cnc[nH]2)NC(=O)[C@H](Cc2c[nH]c3ccccc23)NC(=O)[C@H](C)NC(=O)[C@@H]2CSSC[C@H](NC(=O)[C@H](Cc3c[nH]c4ccccc34)NC(=O)[C@H](C(C)C)NC(=O)[C@H](CC(C)C)NC(=O)[C@H](CCC(=O)O)NC(=O)CNC1=O)C(=O)N[C@@H]([C@@H](C)O)C(=O)N1CCC[C@@H]1C(=O)N1C[C@@H](NC(=O)c3ccc4c(c3)C(=O)c3cc(C(=O)NC[C@H]5OC[C@H](Nc6cncc(C(F)(F)F)n6)[C@@H](O)[C@H]5O)ccc3-4)C[C@H]1C(=O)N[C@@H](CC(=O)O)C(=O)N2 [compound 40]	6.30 to 7.00	> 7.00				
CC(C)C[C@@H]1NC(=O)[C@H](Cc2cnc[nH]2)NC(=O)[C@H](Cc2c[nH]c3ccccc23)NC(=O)[C@H](C)NC(=O)[C@@H](NC(=O)[C@H](CC(=O)O)NC(=O)CCOCCOCCOCCOCCNC(=O)CCCc2cn(CCCCCC(=O)NC(COCCC(=O)NCCOCCOCCOCCOC[C@H]3CO[C@H](Nc4cncc(C(F)(F)F)n4)[C@@H](O)[C@H]3O)(COCCC(=O)NCCOCCOCCOCCOC[C@H]3OC[C@H](Nc4nccc(C(F)(F)F)n4)[C@@H](O)[C@H]3O)COCCC(=O)NCCOCCOCCOCCOC[C@H]3OC[C@H](Nc4nccc(C(F)(F)F)n4)[C@@H](O)[C@H]3O)nn2)CSSC[C@@H](C(=O)N[C@H](C(N)=O)[C@@H](C)O)NC(=O)[C@H](Cc2c[nH]c3ccccc23)NC(=O)[C@H](C(C)C)NC(=O)[C@H](CC(C)C)NC(=O)[C@H](CCC(=O)O)NC(=O)CNC1=O [compound 94]			> 7.00	> 7.00	> 7.00	
COC1O[C@H](Cn2cc(CCCC(=O)N[C@H]3C[C@H]4C(=O)N[C@@H](CC(=O)O)C(=O)N[C@H]5CSSC[C@H](NC(=O)[C@H](Cc6c[nH]c7ccccc67)NC(=O)[C@H](C(C)C)NC(=O)[C@H](CC(C)C)NC(=O)[C@H](CCC(=O)O)NC(=O)CNC(=O)[C@H](CC(C)C)NC(=O)[C@H](Cc6cnc[nH]6)NC(=O)[C@H](Cc6c[nH]c7ccccc67)NC(=O)[C@H](C)NC5=O)C(=O)N[C@@H]([C@@H](C)O)C(=O)N5CCC[C@@H]5C(=O)N4C3)nn2)[C@H](O)[C@H](O)[C@H]1NC(C)=O (stereo partly drawn) [compound 80]						EC50 ([1]; numeric bounds, nM from footnote): > 4360 nM; EC50 (HepG2 cells; Homo sapiens, numeric bounds, nM from footnote): > 10000 nM
CC(C)C[C@@H]1NC(=O)[C@H](Cc2cnc[nH]2)NC(=O)[C@H](Cc2c[nH]c3ccccc23)NC(=O)[C@H](C)NC(=O)[C@@H]2CSSC[C@H](NC(=O)[C@H](Cc3c[nH]c4ccccc34)NC(=O)[C@H](C(C)C)NC(=O)[C@H](CC(C)C)NC(=O)[C@H](CCC(=O)O)NC(=O)CNC1=O)C(=O)N[C@@H]([C@@H](C)O)C(=O)N1CCC[C@@H]1C(=O)N1C[C@H](NC(=O)COCCOCC(=O)NC[C@H]3OC[C@H](Nc4cncc(C(F)(F)F)n4)[C@@H](O)[C@H]3O)C[C@H]1C(=O)N[C@@H](CC(=O)O)C(=O)N2 [compound 96]	> 7.00	> 7.00	> 7.00			
CC(C)C[C@@H]1NC(=O)[C@H](Cc2cnc[nH]2)NC(=O)[C@H](Cc2c[nH]c3ccccc23)NC(=O)[C@H](C)NC(=O)[C@@H]2CSSC[C@H](NC(=O)[C@H](Cc3c[nH]c4ccccc34)NC(=O)[C@H](C(C)C)NC(=O)[C@H](CC(C)C)NC(=O)[C@H](CCC(=O)O)NC(=O)CNC1=O)C(=O)N[C@@H]([C@@H](C)O)C(=O)N1CCC[C@@H]1C(=O)N1C[C@@H](NC(=O)CCOCCOCCOCCOCCNC(=O)CCCc3cn(CCCCCC(=O)NC(COCCC(=O)NCCO[C@@H]4O[C@H](CO)[C@H](O)[C@H](O)[C@H]4Nc4cncc(C(F)(F)F)n4)COCCC(=O)NCCO[C@@H]4O[C@H](CO)[C@H](O)[C@H](O)[C@H]4Nc4cncc(C(F)(F)F)n4)nn3)C[C@H]1C(=O)N[C@@H](CC(=O)O)C(=O)N2 [compound 84]				> 7.00	> 7.00	
